# Biological target: T1, AnRut (recombinant rutinosidase from Aspergillus niger) (Aspergillus niger, UniProt A0A6B9UJ04)
# T1 construct: vector pPICZalphaA-RUT, secreted as fusion product by Pichia pastoris KM71H; crude culture medium, ca 66 kDa glycosylated (45 kDa deglycosylated), dimer
# T1 sequence (A0A6B9UJ04 20-386): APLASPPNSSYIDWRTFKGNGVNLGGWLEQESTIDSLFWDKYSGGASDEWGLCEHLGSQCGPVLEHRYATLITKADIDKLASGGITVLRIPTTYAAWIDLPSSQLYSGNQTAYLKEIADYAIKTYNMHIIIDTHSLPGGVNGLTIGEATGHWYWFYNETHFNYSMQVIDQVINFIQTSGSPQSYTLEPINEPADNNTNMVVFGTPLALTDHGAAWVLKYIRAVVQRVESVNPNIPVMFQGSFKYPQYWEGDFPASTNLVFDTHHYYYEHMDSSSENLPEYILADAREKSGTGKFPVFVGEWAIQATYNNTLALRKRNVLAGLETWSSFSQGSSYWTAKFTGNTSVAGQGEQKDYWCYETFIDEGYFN
# Assay: transglycosylation (glycosyl donor), TLC / product isolation
# Assay type: biochemical
# Details: pH 3.5, 36 °C; crude culture medium with secreted recombinant enzyme; suspended substrate; acceptors 3-9
row,SMILES,"transglycosylation (glycosyl donor), TLC / product isolation"
1,"O=c1c(O[C@@H]2O[C@H](CO)[C@@H](O)[C@H](O)[C@H]2O)c(-c2ccc(O)c(O)c2)oc2cc(O)cc(O)c12 [compound 2, isoquercitrin]","both AnRut activities, i.e., rutinosidase (with rutin donor) and glucosidase (with isoquercitrin donor)"
2,"C[C@@H]1O[C@@H](OC[C@H]2O[C@@H](Oc3c(-c4ccc(O)c(O)c4)oc4cc(O)cc(O)c4c3=O)[C@H](O)[C@@H](O)[C@@H]2O)[C@H](O)[C@H](O)[C@H]1O [compound 1, rutin]","both AnRut activities, i.e., rutinosidase (with rutin donor) and glucosidase (with isoquercitrin donor)"
